Here are results for 22 molecules from patent US4016159A, “Acylamino-cephem-carboxylic acids containing an amidino or guanidino group in the molecule” (Hoechst Aktiengesellschaft, priority 1973, dated 1977).

What all share (assay type): cell-based
The subject of one assay is Streptococcus D. The assay can be described thus: Minimum inhibition concentration (MIC), Table 4. As to conditions: Streptococcus, Germ: Streptococcus D; read-out: Minimum inhibition concentration (MIC). From the text: (§1) Minimum inhibition concentration (MIC) in γ/ml
Assay [1] has as its system Staphylococcus aureus 285. In words: Minimum inhibition concentration (MIC), Table 1.
Excerpt: as §1
Germ: Staphylococcus aureus 285

The test system of a further assay is Streptococcus pyogenes A. In words: Minimum inhibition concentration (MIC), Table 3. Particulars: Germ: Streptococcus pyogenes A; read-out: Minimum inhibition concentration MIC. From the text:
Minimum inhibition concentration MIC in γ/ml
Germ: Streptococcus pyogenes A

The mark [2] stands for this setting: Staphylococcus aureus, 285, Germ: Staphylococcus aureus 285, read-out: Minimum inhibition concentration (MIC).
The mark [3] stands for this setting: Staphylococcus aureus, 285, read-out: Minimum inhibition concentration (MIC).

≈ marks a conversion by molar mass, not a printed value. Where two headings read alike, the source gives them in different places.

As for `Cc1nnc(SCC2=C(C(=O)O)N3C(=O)C(NC(=O)COc4ccc(C5=NCCCN5)cc4)C3SC2)o1` (centres unmarked) [Example 76, 3-[(5-methyl-1,3,4-oxadiazole-2-yl)-thiomethyl]-7-[4-(1,4,5,6-tetrahydropyrimide-2-yl)-phenoxy-acetamido]-Δ 3-cephem-4-carboxylic acid], the MIC in the assay with Streptococcus D is 10 to 50 µg/mL (≈ 18.4 to 91.8 µM); in assay [1] (setting [2]), 0.5 to 1.25 µg/mL (≈ 0.918 to 2.3 µM). On to `Cn1nnnc1SCC1=C(C(=O)O)N2C(=O)C(NC(=O)Cc3ccc(C4=NCCCN4)cc3)C2SC1` (centres unmarked) [Example 87, 3-[(1-methyl-1H-tetrazole-5-yl)-thiomethyl]-7-[4-(1,4,5,6-tetrahydropyrimide-2-yl)-phenylacetamido]-Δ 3-cephem-4-carboxylic acid], for which the MIC in assay [1] (setting [2]) lay in the range of 1.6 to 2.5 µg/mL (≈ 3.03 to 4.73 µM). `Cn1nnnc1SCC1=C(C(=O)O)N2C(=O)C(NC(=O)COc3ccc(C4=NCCCN4)cc3)C2SC1` (centres unmarked) [Example 93, 3-[(1-methyl-1-H-tetrazol-5-yl)-thiomethyl]-7-[4-(1,4,5,6-tetrahydropyrimide-2-yl)-phenoxyacetamido-]-Δ3-cephem-4-carboxylic acid]: the MIC in the assay on Streptococcus D was in the range of 10 to 50 µg/mL (≈ 18.4 to 91.8 µM).

As for `COc1cc(C(=N)N)ccc1OCC(=O)NC1C(=O)N2C(C(=O)O)=C(CSc3nc(C)cs3)CSC12` (centres unmarked) [Example 130, 3-[(4-methyl-1,3-thiazole-2-yl)-thiomethyl]-7-(4-amidino-2-methoxy-phenoxyacetamido)-Δ3-cephem-4-carboxylic acid], the MIC in assay [1] (setting [2]) fell in the range of 0.156 to 0.391 µg/mL (≈ 0.284 to 0.711 µM); in the assay with Streptococcus pyogenes A, 0.008 to 0.0156 µg/mL (≈ 0.0146 to 0.0284 µM). The like results for `CCCc1nnc(SCC2=C(C(=O)O)N3C(=O)C(NC(=O)COc4ccc(C(=N)N)cc4)C3SC2)o1` (centres unmarked) [Example 40, 3-[(5-n-propyl-1,3,4-oxadiazole-2-yl)-thiomethyl]-7-(4-amidinophenoxyacetamido)-Δ 3-cephem-4-carboxylic acid] were, in that order, 0.156 to 0.391 µg/mL (≈ 0.293 to 0.734 µM) and 0.008 to 0.0156 µg/mL (≈ 0.015 to 0.0293 µM). For the molecule `Cc1n[nH]c(SCC2=C(C(=O)O)N3C(=O)C(NC(=O)Cc4ccc(C5=NCCCN5)cc4)C3SC2)n1` (centres unmarked) [Example 17, 3-[(methyl-1,2,4,-triazole-3-yl)-thiomethyl]-7-[4-(1,4,5,6-tetrahydropyrimide-2-yl)-phenylacetamido]-Δ 3-cephem-4-carboxylic acid], the results for the MIC (in the assay with Streptococcus D; in assay [1] (setting [2])) were 10 to 50 µg/mL (≈ 19 to 94.8 µM) and 1.6 to 2.5 µg/mL (≈ 3.03 to 4.74 µM), respectively.

`CCc1nnc(SCC2=C(C(=O)O)N3C(=O)C(NC(=O)Cc4ccc(C5=NCCCN5)cc4)C3SC2)n1N` (centres unmarked) [Example 104, 3-[(4-amino-5-ethyl-1,2,4-triazole-3-yl)-thiomethyl]-7-[4-(1,4,5,6-tetrahydropyrimide-2-yl)-phenylacetamido-] -Δ3-cephem-4-carboxylic acid]: the MIC in assay [1] (setting [2]) fell in the range of 1.6 to 2.5 µg/mL (≈ 2.87 to 4.49 µM). Consider `CCCCc1nnc(SCC2=C(C(=O)O)N3C(=O)C(NC(=O)Cc4ccc(C5=NCCCN5)cc4)C3SC2)s1` (centres unmarked) [Example 77, 3-[(5-n-butyl-1,3,4-thiadiazole-2-yl)-thiomethyl]-7-[4-(1,4,5,6-tetrahydropyrimide-2-yl)-phenylacetamido]-Δ 3-cephem-4-carboxylic acid], for which the MIC was in the range of 0.5 to 1.25 µg/mL (≈ 0.852 to 2.13 µM) in assay [1] (setting [2]) and 0.008 to 0.0156 µg/mL (≈ 0.0136 to 0.0266 µM) in the assay with Streptococcus pyogenes A. Take `Cc1nnc(SCC2=C(C(=O)O)N3C(=O)C(NC(=O)Cc4ccc(C5=NCCCN5)cc4)C3SC2)o1` (centres unmarked) [Example 78, 3-[(5-methyl-1,3,4-oxadiazole-2-yl)-thiomethyl]-[4-(1,4,5,6-tetrahydropyrimide-2-yl)-phenylacetamido]-Δ 3-cephem-4-carboxylic acid]: the figures for the MIC (in assay [1] (setting [2]); in the assay with Streptococcus pyogenes A) were 0.5 to 1.25 µg/mL (≈ 0.946 to 2.36 µM) and 0.008 to 0.0156 µg/mL (≈ 0.0151 to 0.0295 µM), respectively. With `Cc1csc(SCC2=C(C(=O)O)N3C(=O)C(NC(=O)Cc4ccc(NC(=N)N)cc4)C3SC2)n1` (centres unmarked) [Example 7], the figures for the MIC (with Streptococcus D; in assay [1] (setting [2])) were 10 to 50 µg/mL (≈ 19.3 to 96.4 µM) and 0.5 to 1.25 µg/mL (≈ 0.964 to 2.41 µM), respectively.

Consider `Cn1ccnc1SCC1=C(C(=O)O)N2C(=O)C(NC(=O)Cc3ccc(C4=NCCN4)cc3)C2SC1` (centres unmarked) [Example 123, 3-[(1-methylimidazole-2-yl)-thiomethyl]-7-[4-(imidazoline-2-yl)-phenylacetamido]-Δ 3-cephem-4-carboxylic acid], for which, in assay [1] (setting [2]), the MIC fell in the range of 1.6 to 2.5 µg/mL (≈ 3.12 to 4.88 µM). In the case of `COc1cc(C(=N)N)ccc1OCC(=O)NC1C(=O)N2C(C(=O)O)=C(CSc3nccs3)CSC12` (centres unmarked) [Example 129, 3-[(1,3-thiazole-2-yl)thiomethyl]-7-(4-amidino-2-methoxy-phenoxyacetamido)-Δ3-cephem-4-carboxylic acid], the MIC in assay [1] (setting [2]) lay in the range of 0.156 to 0.391 µg/mL (≈ 0.291 to 0.73 µM); in the assay on Streptococcus pyogenes A it was 0.008 to 0.0156 µg/mL (≈ 0.0149 to 0.0291 µM). In the case of `CC1(C)S[C@@H]2[C@H](NC(=O)COc3ccccc3)C(=O)N2[C@H]1C(=O)O` [Penicillin-V-K, reference compound], in assay [1] (setting [3]), the MIC was determined as 125 µg/mL (≈ 357 µM). Regarding `CC1(C)S[C@@H]2[C@H](NC(=O)Cc3ccccc3)C(=O)N2[C@H]1C(=O)O` [Penicillin-G-Na, reference compound], in assay [1] (setting [3]), the MIC worked out at 125 µg/mL (≈ 374 µM). For the molecule `CC1(C)S[C@@H]2[C@H](NC(=O)[C@H](N)c3ccccc3)C(=O)N2[C@H]1C(=O)O` [Ampicillin, reference compound], the MIC in assay [1] (setting [2]) came out at 100 µg/mL (≈ 286 µM). With `Cc1nnc(SCC2=C(C(=O)O)N3C(=O)C(NC(=O)COc4ccc(C5=NCCN5)cc4)C3SC2)o1` (centres unmarked) [Example 74, 3-[(5-methyl-1,3,4-oxadiazole-2-yl)-thiomethyl]-7-[4-(imidazoline-2-yl)-phenoxyacetamido]-Δ 3-cephem-4-carboxylic acid], the results for the MIC (in assay [1] (setting [2]); in the assay with Streptococcus pyogenes A) were 0.5 to 1.25 µg/mL (≈ 0.942 to 2.36 µM) and 0.008 to 0.0156 µg/mL (≈ 0.0151 to 0.0294 µM), respectively. Consider `Cc1csc(SCC2=C(C(=O)O)N3C(=O)C(NC(=O)Cc4ccc(C5=NCCCN5)cc4)C3SC2)n1` (centres unmarked) [Example 15, 3-[(4-methyl-thiazole-2-yl)-thiomethyl]-7-[4-(1,4,5,6-tetrahydropyrimide-2-yl)-phenylacetamido]-Δ 3-cephem-4-carboxylic acid], for which the MIC is 10 to 50 µg/mL (≈ 18.4 to 92 µM) with Streptococcus D and 1.6 to 2.5 µg/mL (≈ 2.94 to 4.6 µM) in assay [1] (setting [2]). In the case of `Cc1nnc(SCC2=C(C(=O)O)N3C(=O)C(NC(=O)Cc4ccc(C(=N)N)cc4)C3SC2)s1` (centres unmarked) [Example 45, 3-[(5-methyl-1,3,4-thiadiazole-2-yl)-thiomethyl]-7-(4-amidinophenylacetamido)-Δ 3-cephem-4-carboxylic acid], the results for the MIC (in assay [1] (setting [2]); in the assay with Streptococcus pyogenes A) were 0.156 to 0.391 µg/mL (≈ 0.309 to 0.775 µM) and 0.000391 to 0.0078 µg/mL (≈ 0.000775 to 0.0155 µM), respectively.

In the case of `CCCCc1nnc(SCC2=C(C(=O)O)N3C(=O)C(NC(=O)COc4ccc(C(=N)N)cc4)C3SC2)s1` (centres unmarked) [Example 67, 3-[(5-n-butyl-1,3,4-thiadiazole-2-yl)-thiomethyl]-7-(4-amidinophenoxyacetamido)-Δ 3-cephem-4-carboxylic acid], the MIC in assay [1] (setting [2]) is 0.5 to 1.25 µg/mL (≈ 0.889 to 2.22 µM). As to `Cc1nnc(SCC2=C(C(=O)O)N3C(=O)[C@@H](NC(=O)Cn4cnnn4)[C@H]3SC2)s1` [Cephazolin, reference compound], the MIC with Streptococcus D is 100 µg/mL (≈ 220 µM). With `CCCCc1nnc(SCC2=C(C(=O)O)N3C(=O)C(NC(=O)COc4ccc(C(=N)N)cc4)C3SC2)o1` (centres unmarked) [Example 66, 3-[(5-n-butyl-1,3,4-oxadiazole-2-yl)-thiomethyl]-7-(4-amidinophenoxyacetamido)-Δ 3-cephem-4-carboxylic acid], the MIC in assay [1] (setting [2]) lay within 0.5 to 1.25 µg/mL (≈ 0.915 to 2.29 µM); in the assay with Streptococcus pyogenes A, 0.008 to 0.0156 µg/mL (≈ 0.0146 to 0.0285 µM). The like results for `N=C(N)c1ccc(CC(=O)NC2C(=O)N3C(C(=O)O)=C(CSC4=NCCS4)CSC23)cc1` (centres unmarked) [Example 90, 3-[2-thiazoline-2-yl-thiomethyl]-7-[4-amidino-phenylacetamido]-Δ 3-cephem-4-carboxylic acid] were, in that order, 0.156 to 0.391 µg/mL (≈ 0.317 to 0.795 µM) and 0.000391 to 0.0078 µg/mL (≈ 0.000795 to 0.0159 µM).
